This is an account of results in patent publication US20210204539A1, “Method for Suppressing Freezing Damage and Composition for Preventing Freezing Damage” (Kyoto University, priority 2018, published 2021).

Data set [1] deals with cell line HepG2 derived from a human liver cancer. Nature of the data set: Cold damage suppression, HepG2 cultured at 4° C. for 24 hours, viability after rewarming by alamarBlue (Examples 1, 5, 6). Format: cell-based. The following applies: HepG2, 4° C. 24 hours, compound 0 M to 50 μM, viability one hour after rewarming at 37° C. The protocol: Then, the culturing at 4° C. in a low temperature incubator was performed for 24 hours. After the culturing at low temperature for 24 hours, rewarming was carried out using a medium at 37° C., and the viability of cells one hour after the rewarming was determined by detecting enzyme activity using alamarBlue™. The compound concentration was varied from 0 M (Vehicle) to 50 μM, so that the concentration dependency of the compound was observed.
Using the compounds 1 and 3 to 7 synthesized by the above-described scheme, the cell line HepG2 derived from a human liver cancer was cultured under the presence of the respective compounds at low temperature, and cold damage suppression effects were assessed.
HepG2 cells were cultured at 37° C. so as to be at a density of 80 to 90%, and thereafter, the medium was replaced with a medium (DMEM) at 4° C. to which any one of the compounds 1 and 3 to 7 had been added preliminarily. Then, the culturing at 4° C. in a low temperature incubator was performed for 24 hours. After the culturing at low temperature for 24 hours, rewarming was carried out by a medium at 37° C., and the viability of cells one hour […] determined by detecting enzyme activity using alamarBlue™. The compound concentration was varied from 0 M (Vehicle) to 50 μM, so that the concentration dependency of the compound was observed. […]

Data set [2] has as its system the cells. Nature of the data set: Toxicity to the cells when administered at a time other than the low-temperature preservation. Format: cell-based. The following applies: e.g. during a normal-temperature preservation.
Data set [3] relates to cell line HepG2 derived from a human liver cancer. As to the kind of experiment: Cold storage time versus viability, HepG2 (Example 2). The class given is cell-based. The following applies: HepG2, 10 μM, 4° C., versus Vehicle. How it is done: (§1) Then, the culturing at 4° C. in a low temperature incubator was performed. The cell viability one hour after the rewarming using a medium at 37° C. was determined by detecting enzyme activity with use of alamarBlue™. The relationship between the cold storage time and the viability was observed.

Data set [4] deals with human umbilical vascular endothelial cell line HUEhT-2. Nature of the data set: Cold storage time versus viability, HUEhT-2 (Example 2). The class given is cell-based. The following applies: HUEhT-2, 10 μM. The protocol: as §1
Data set [5] has as its system Flp-In™ CHO cell line. As to the kind of experiment: Cold storage time versus viability, Flp-In CHO (Example 2). The class given is cell-based. How it is done: as §1
For data set [6], the system named is cells preserved at low temperature. As to the kind of experiment: Cold damage suppression at varied timings of contact with the compound (Example 3). Format: cell-based. How it is done:
Cells were cultured at 37° C. so as to be at a density of 80 to 90%, and thereafter, the medium was replaced with a medium at 4° C. Then, the culturing at 4° C. in a low temperature incubator was performed. […] The cell viability one hour after the rewarming using a medium at 37° C. was determined by detecting enzyme activity with use of alamarBlue™.

The test system of data set [7] is myocardium in the hearts of transplanted rats. Nature of the data set: Rat heart 24-hour cold storage and ectopic transplantation, Masson's trichrome staining (Example 4). The class given is in vivo, LEW rats. The following applies: UW solution with 10 μM, 24-hour cold storage at 4° C., one week after transplantation, versus Vehicle group. The protocol: To each of 7 to 8 week-old LEW rats as recipients, laparotomy under general anesthesia was performed to expose the abdominal aorta and the vena cava. Then, the heart in cold storage was taken out of the UW solution, and ectopic transplantation was carried out, by end-to-side anastomosis between the pulmonary artery and the aorta of the donor and the abdominal vena cava and the aorta of the recipient, respectively, followed by laparotomy closure. The heart was removed one week after the transplantation, and the viable area and fibrotic area of myocardium in the heart were compared by using Masson's trichrome staining (N=5 in each group).

Data set [8] deals with S1PR. The following applies: known; cited from earlier work.
For data set [9], the target named is S1PR1 (Homo sapiens, UniProt P21453). The following applies: reported; cited from earlier work.
S1PR1, sequence (P21453 whole entry, species assumed): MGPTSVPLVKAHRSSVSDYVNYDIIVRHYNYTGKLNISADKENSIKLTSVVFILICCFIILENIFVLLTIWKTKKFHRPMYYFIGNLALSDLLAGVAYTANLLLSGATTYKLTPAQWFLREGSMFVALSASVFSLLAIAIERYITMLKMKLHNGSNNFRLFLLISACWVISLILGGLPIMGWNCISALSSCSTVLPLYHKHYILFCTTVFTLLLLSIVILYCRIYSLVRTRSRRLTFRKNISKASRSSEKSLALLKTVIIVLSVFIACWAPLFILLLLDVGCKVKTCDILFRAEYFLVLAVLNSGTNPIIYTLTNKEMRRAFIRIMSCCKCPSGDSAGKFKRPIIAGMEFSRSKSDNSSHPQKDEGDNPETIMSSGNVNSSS
Data set [10] concerns the target S1PR2 (Homo sapiens, UniProt O95136). The following applies: reported; cited from earlier work.
Data set [11] concerns the target T1, S1PR4 (Homo sapiens, UniProt O95977).
T1 sequence (O95977 1-384): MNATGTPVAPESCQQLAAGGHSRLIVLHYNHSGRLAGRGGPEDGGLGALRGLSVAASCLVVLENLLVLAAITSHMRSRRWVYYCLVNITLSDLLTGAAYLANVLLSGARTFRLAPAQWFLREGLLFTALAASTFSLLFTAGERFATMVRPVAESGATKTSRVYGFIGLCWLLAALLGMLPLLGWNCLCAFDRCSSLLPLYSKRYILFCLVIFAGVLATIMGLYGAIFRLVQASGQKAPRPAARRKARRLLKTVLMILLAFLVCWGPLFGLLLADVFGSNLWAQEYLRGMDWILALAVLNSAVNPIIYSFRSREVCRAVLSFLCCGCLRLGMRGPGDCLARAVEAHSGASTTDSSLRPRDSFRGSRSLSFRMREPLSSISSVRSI
The following applies: reported; cited from earlier work.

For data set [12], the target named is S1PR5 (Homo sapiens, UniProt Q9H228). The following applies: reported; cited from earlier work.
S1PR5, sequence (Q9H228 whole entry, species assumed): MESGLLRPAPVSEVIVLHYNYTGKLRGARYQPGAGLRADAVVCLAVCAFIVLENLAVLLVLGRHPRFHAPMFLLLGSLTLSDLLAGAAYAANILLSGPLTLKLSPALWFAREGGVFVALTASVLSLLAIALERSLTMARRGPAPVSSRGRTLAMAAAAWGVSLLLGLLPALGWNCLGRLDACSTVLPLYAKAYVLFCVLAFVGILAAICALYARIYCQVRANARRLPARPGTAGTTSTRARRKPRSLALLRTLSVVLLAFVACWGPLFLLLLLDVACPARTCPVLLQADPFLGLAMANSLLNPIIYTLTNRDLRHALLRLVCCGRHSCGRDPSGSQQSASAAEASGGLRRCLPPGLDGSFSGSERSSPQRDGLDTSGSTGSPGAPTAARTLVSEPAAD

S1PR2, sequence (O95136 whole entry, species assumed): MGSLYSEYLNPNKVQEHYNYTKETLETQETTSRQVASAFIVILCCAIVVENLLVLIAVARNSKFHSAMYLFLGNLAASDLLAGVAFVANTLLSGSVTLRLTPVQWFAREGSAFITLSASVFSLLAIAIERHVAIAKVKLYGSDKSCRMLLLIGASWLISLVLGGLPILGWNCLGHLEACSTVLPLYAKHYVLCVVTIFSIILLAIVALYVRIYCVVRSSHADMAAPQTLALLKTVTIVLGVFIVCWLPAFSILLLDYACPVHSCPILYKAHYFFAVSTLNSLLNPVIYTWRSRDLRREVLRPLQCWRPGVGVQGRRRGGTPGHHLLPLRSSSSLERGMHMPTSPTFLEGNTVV

The viability is a read-out of living cells in per cent, often relative to untreated cells. A high value points to less harm to the cells. Turning to `CC(C)(C)C(=O)/C(=N/c1ccc(Cl)cc1)NNc1ccc(Cl)cc1` [Compound 1, N-(4-chlorophenyl)-N′-(4-chlorophenylamino)-3,3-dimethyl-2-oxobutanamidine], the “amelioration of the deterioration of cell viability during the low-temperature preservation (cold damage suppression)” value in data set [1] was “concentration-dependent amelioration”. Further, the “toxicity to the cells” value in data set [2] was “did not exhibit toxicity”. Besides, the “amelioration of the deterioration of cell viability during the low-temperature preservation” value in data set [3] is listed as “amelioration of the deterioration of cell viability”; in [4] (4° C., versus Vehicle), “amelioration of the deterioration of cell viability”; in [5] (10 μM, 4° C., versus Vehicle) it was “amelioration of the deterioration of cell viability”. Moreover, the viability at 10 µM in data set [4] (Homo sapiens, Endothelial cell, 360 h, low-temperature preservation period 15 days) is over 50%; in data set [5] (Cricetulus griseus, 360 h, low-temperature preservation period 15 days) it was over 50%. Further, the “cold damage (deterioration of viability) suppression” value in data set [6] (10 μM added simultaneously with the start of the low-temperature preservation) was “could be suppressed”; in data set [6] (10 μM added to the medium before the start of the low-temperature preservation), “could be suppressed”; in data set [6] (10 μM added when the temperature was turned to 37° C. after the low-temperature preservation (Rewarm treat)) it was “not sufficiently suppressed”. Also, the “fibrotic area of myocardium” value in data set [7] was “less fibrotic one”. Besides, the “viable area of myocardium” value in data set [7] is given as “more viable myocardium”. In addition, the S1PR antagonist result in data set [8] is “S1PR antagonists”. The “inhibiting activity to S1PR1” value in [9] is listed as “has an inhibiting activity”. Also, in [10], the “inhibiting activity to S1PR2” value is “has an inhibiting activity”. The “inhibiting activity to S1PR4” value in [11] was “has an inhibiting activity”. Moreover, in [12], the “inhibiting activity to S1PR5” value is listed as “has an inhibiting activity”.
Regarding `Cc1nn(C)c2nc(NNC(=O)Nc3cc(Cl)nc(Cl)c3)cc(C(C)C)c12` [Compound 2, N-(2,6-dichloro-4-pyridinyl)-2-[1,3-dimethyl-4-(1-methylethyl)-1H-pyrazolo[3,4-b]pyridin-6-yl]-hydrazinecarboxamide], the “amelioration of the deterioration of cell viability during the low-temperature preservation (cold damage suppression)” value in data set [1] was “concentration-dependent amelioration”. Further, the “toxicity to the cells” value in [2] was “did not exhibit toxicity”. In addition, the S1PR antagonist result in [8] is listed as “S1PR antagonists”.
